Assay results: patent publication US5565435A (Kabushiki Kaisha Hayashibara Seibutsu Kagaku Kenkyujo, priority 1991, dated 1996)
Values after ≈ are worked out from the molar mass of the structure shown.

Key:
[1] = Antioxidation activity (hydroperoxide formed by oxidation of linoleic acid, HPLC); conditions: 200 ppm, 50° C., light-shielded
Procedure: Ten ml of about one % linoleic acid in ethanol solution, 10 ml of 50 mM phosphate buffer and 5 ml water were mixed, and 5 ml aliquots of the mixture were distributed to 5 ml-flasks. […] A half ml of solution was sampled from each flask at a prescribed time interval, and the sampled solution was subjected to high-performance liquid chromatography (HPLC) to analyze the amount of hydroperoxide which was formed as a result of the oxidation of linoleic acid. The conditions used in the analysis of hydroperoxide were as follows:
Apparatus : WATERS MODEL M-6000A, a pump system commercialized by Japan Waters Ltd., Tokyo, Japan;
Column : ODS-M column, a column commercialized by Shimadzu Techno-Research,Inc., Kyoto, Japan;
Column temperature : 35° C.
Eluate : water:methanol:acetic acid =75:25:0.1
Detection wave length: at 235 nm

Solubility in solvent = format: physicochemical; conditions: 25° C. water (pH 7)

SMILES	Relative intensity determined with the peak area corresponding to hydroperoxide, sampling day 0 ([1]; day 0, Control 0.3)	Relative intensity determined with the peak area corresponding to hydroperoxide, sampling day 4 ([1]; day 4, Control 1.5)	Relative intensity determined with the peak area corresponding to hydroperoxide, sampling day 7 ([1]; day 7, Control 5.3)	Relative intensity determined with the peak area corresponding to hydroperoxide, sampling day 8 ([1]; day 8, Control 7.1)	solubility (Solubility in solvent) [µg/mL]
Cc1c(C)c2c(c(C)c1O)CCC(C)(CCCC(C)CCCC(C)CCCC(C)C)O2 (racemic) [dl-α-Tocopherol]	0.3	1.1	4.5	6.0	
O=c1c(O)c(-c2ccc(O)c(O)c2)oc2cc(O)cc(O)c12 [quercetin]					~2 (≈ 6.62 µM)
